Assay results taken from US20100285146A1, “PEPTIDES AND METHODS FOR THE TREATMENT OF SYSTEMIC LUPUS ERYTHEMATOSUS” (priority 2007, published 2010).
Each block holds one molecule with its values, some of them ahead of it. No end group written: not given here.

What was measured:
[1] = test system: C72 murine anti-DNA antibody; assay: Anti-peptide direct binding ELISA with C72; conditions: for C72 Binding: direct binding ELISA, footnote: O.D. after one (1) hour; for binding of C72 murine anti-DNA antibody to laminin peptides (FIG. 1): ELISA, C72 conditioned medium in various dilutions
Experimental: (§1) Wells were coated with 10 μg/ml of the peptides, blocked with 1% BSA (bovine serum albumin) in PBS (pH 7.4), reacted with appropriately diluted plasma or monoclonal antibodies, incubated with anti-human or anti-mouse immunoglobulin enzyme conjugated to alkaline phosphatase and detected by addition of substrate (Sigma 100 Phosphatase Substrate Tablets) and color development using an Organon Teknika Microwell System spectrometer at wavelength of 405 nm.
The interaction of the C72 murine anti-DNA antibody with laminin peptides was analyzed by ELISA as described above. The C72 conditioned medium was diluted in PBS in various dilutions.
(§2) The peptides of the present invention were tested for their ability to bind directly with C72 murine anti-DNA antibodies and B3 human anti-DNA antibodies according to the method described hereinabove.

[2] = test system: B3 human anti-DNA antibodies; assay: Anti-peptide direct binding ELISA with B3; conditions: direct binding ELISA; footnote: O.D. after two (2) hours
Experimental: as §1
The human monoclonal anti-DNA antibodies DIL 6 and B3 were derived from lupus patients by the hybridoma technique. […] In FIGS. 3 and 4, the peptides are referred to as denoted above or as follows; AS30 is R27, AS19 is R35, AS35 is R26, AS17 is R28 and AS6 is R18.
as §2

C72 anti-DNA antibody = assay: Competitive inhibition of C72 binding to R38 (5100); set-up: species or system murine; conditions: concentration of competitive inhibitor giving 50% inhibition, ELISA
From the text: A competitive inhibition study compared how each of the peptides competes with R38 (5100) for binding to the C72 anti-DNA antibody. Conducted according to the methods described hereinabove, the results of the study are disclosed in Table 4 below and are further elucidated by reference to FIG. 10.

[3] = test system: C72 murine anti-DNA antibody; assay: Competitive inhibition of the binding of C72 to 5200; conditions: after incubation of C72 with the inhibiting agent
Experimental: The binding of C72 to 5200 was tested before and after incubation with 5200, R38, R18, Heparin, DNA and DNase. […] The percent inhibition is the percent reduction of the O.D. after incubation with the inhibiting agent.

[4] = test system: MRL/1pr/1pr urine antibodies; assay: Binding of murine urinary immunoglobulins, MRL/1pr/1pr urine; set-up: species or system mice; conditions: pooled urine of MRL/1pr/1pr mice
Experimental: as §1
(§3) Thus, pooled urine from at least 5 mice (either MRL/1pr/1pr or control mice, e.g. BALB/c) was added to wells coated with R38′ (5200), R18 or DNA as described above and bound 5200 assayed by ELISA.
(§4) Each group is comprised of pooled urine.

[5] = test system: BALB/c urinary immunoglobulins; assay: Binding of murine urinary immunoglobulins, BALB/c control urine; conditions: pooled urine of BALB/c control mice
Experimental: as §1, §3, §4

[6] = test system: urine antibodies of lupus patients; assay: Urine anti-peptide antibody ELISA in patients; assay type: binding, human
[7] = molecular target: C72 murine anti-DNA antibody; assay: competitive inhibition ELISA: peptide in solution against binding of C72 to coated 5100

Molecule: CC[C@H](C)[C@H](NC(=O)[C@H](CC(N)=O)NC(=O)[C@H](CC(C)C)NC(=O)[C@H](CC(=O)O)NC(=O)[C@H](CC(C)C)NC(=O)[C@H](CCCNC(=N)N)NC(=O)[C@@H](NC(=O)[C@H](CCCCN)NC(=O)[C@H](Cc1ccc(O)cc1)NC(=O)CNC(=O)[C@H](CCC(=O)O)NC(=O)[C@@H](N)CCCCN)C(C)C)C(=O)N[C@H](C(=O)N[C@@H](CC(C)C)C(=O)N[C@@H](CCC(=O)O)C(=O)N[C@@H](Cc1ccccc1)C(=O)N[C@@H](CCC(=O)O)C(=O)N[C@H](C(=O)N[C@H](C(=O)N[C@@H](CO)C(=O)N[C@@H](CCCCN)C(=O)O)[C@@H](C)O)[C@@H](C)O)[C@@H](C)O [Peptide 5107]
C72 Binding [1]: 0.05 O.D.
B3 Binding [2]: 0.01 O.D.
50% Inhibition of C72 binding to mouse R38 (5100) (C72 anti-DNA antibody): 85 µg/mL

Molecule: AEGYAVALDLNITLEFATTSA [Peptide 5104]
C72 Binding [1]: 0.06 O.D.
B3 Binding [2]: 0.02 O.D.

Molecule: DGKWHTVKTEYIKRKAF [Peptide R28, laminin derived peptide, residues 2779-2795]
C72 Binding [1]: 0.01 O.D.

Molecule: KAGYKVRLALNITLAFRTTSK [Peptide 5108]
C72 Binding [1]: 2.75 O.D.
B3 Binding [2]: 1.93 O.D.
50% Inhibition of C72 binding to mouse R38 (5100) (C72 anti-DNA antibody): 2 µg/mL
Urine anti-5108 O.D. (Mean + S.E.) ([6]; Example 9, renal disease absent, 2 samples): 0.064 ± 0.05 O.D.
Urine anti-5108 O.D. (Mean + S.E.) ([6]; Example 9, renal disease present, 22 samples): 0.672 ± 0.1 O.D.

Molecule: KATPMLKMRTSFHGCIK [Peptide R37, laminin derived peptide, residues 2615-2631]
binding of C72 murine anti-DNA antibody to laminin peptides (FIG. 1) [1]: binding
C72 Binding [1]: 1.8 O.D.

Molecule: KEGYKVELDLNITLEFETTSK [Peptide 5105]
C72 Binding [1]: 0.07 O.D.
B3 Binding [2]: 0.02 O.D.

Molecule: KEGYKVELDLNITLEFRTTSK [Peptide 5106]
C72 Binding [1]: 1.9 O.D.
B3 Binding [2]: 0.16 O.D.
50% Inhibition of C72 binding to mouse R38 (5100) (C72 anti-DNA antibody): 2.5 µg/mL

Molecule: KEGYKVRLALNITLEFRTTSK [Peptide 5109]
C72 Binding [1]: 2.72 O.D.
B3 Binding [2]: 1.94 O.D.
50% Inhibition of C72 binding to mouse R38 (5100) (C72 anti-DNA antibody): 0.7 µg/mL

Molecule: KEGYKVRLDLNITLEF [Peptide 5101]
C72 Binding [1]: 1.11 O.D.
B3 Binding [2]: 0.1 O.D.
50% Inhibition of C72 binding to mouse R38 (5100) (C72 anti-DNA antibody): 5 µg/mL

Molecule: VRLDLNITLEFR [Peptide 5102]
C72 Binding [1]: 0.1 O.D.
B3 Binding [2]: 0.02 O.D.
50% Inhibition of C72 binding to mouse R38 (5100) (C72 anti-DNA antibody): 30 µg/mL

Molecule: heparin
inhibition of the binding of C72 to 5200 (FIG. 2) [3]: inhibition

B2: 5107 peptide (charge subst. to neg. at 5100 a.a. 17) (peptide)
peptide: KEGYKVRLDLNITLEFETTSK
IC50 [7]: 85 µg/mL

B3: 5101 peptide (Res. 1-16 of 5100) (peptide)
peptide: KEGYKVRLDLNITLEF
IC50 [7]: 5 µg/mL

B4: 5200 peptide (R38′), mouse R38 analog (peptide)
peptide: KEGYKVRLDLNTTLEFRTTSK
IC50 [7]: 10 µg/mL

B5: R38 peptide (5100), mouse R38 (peptide)
peptide: KEGYKVRLDLNITLEFRTTSK
IC50 [7]: 10 µg/mL

B7: 5108 peptide (Ala subst. of 5100 at all negative a.a.) (peptide)
peptide: KAGYKVRLALNITLAFRTTSK
IC50 [7]: 2 µg/mL

B10: 5102 peptide (Res. 6-17 of 5100) (peptide)
peptide: VRLDLNITLEFR
IC50 [7]: 30 µg/mL

Next, values leading:

inhibition of the binding of C72 to 5200 (FIG. 2) [3]: inhibition
Binding of murine urinary immunoglobulins to antigen [4]: U.D.
Binding of murine urinary immunoglobulins to antigen [5]: U.D.
Molecule: DNA

C72 Binding [1]: 0.03 O.D.
B3 Binding [2]: 0.03 O.D.
50% Inhibition of C72 binding to mouse R38 (5100) (C72 anti-DNA antibody): 85 µg/mL
Molecule: KEGYKVQSDLNITLEFRTSSQ [Peptide 5300]

C72 Binding [1]: 2.8 O.D.
B3 Binding [2]: 1.83 O.D.
50% Inhibition of C72 binding to mouse R38 (5100) (C72 anti-DNA antibody): 0.7 µg/mL
Molecule: KEGYKVRLDLNITLAFRTTSK [Peptide 5110]

binding of C72 murine anti-DNA antibody to laminin peptides (FIG. 1) [1]: binding
C72 Binding [1]: 0.75 O.D.
Molecule: KQNCLSSRASFRGCVRNLRLSR [Peptide R30, laminin derived peptide, residues 3011-3032]

C72 Binding [1]: 0.03 O.D.
B3 Binding [2]: 0.02 O.D.
Molecule: LDLNITEFRTTSK [Peptide 5103]

C72 Binding [1]: 0.01 O.D.
Binding of murine urinary immunoglobulins to antigen [4]: U.D.
Binding of murine urinary immunoglobulins to antigen [5]: U.D.
Molecule: RPVRHAQCRVCDGNSTNPRERH [Peptide R18, peptide from the N-terminal of mouse laminin alpha chain, residues 42-63, reference compound]

C72 Binding [1]: 0.01 O.D.
B3 Binding [2]: 0.01 O.D.
Molecule: VQSDVNITLEFR [Peptide 5111]

IC50 [7]: 2.5 µg/mL
B1: 5106 peptide (charge subst. to neg. at 5100 a.a. 7) (peptide)
peptide: KEGYKVELDLNITLEFRTTSK

IC50 [7]: 0.7 µg/mL
B6: 5110 peptide (Ala subst. of 5100 a.a. 15) (peptide)
peptide: KEGYKVRLDLNITLAFRTTSK

IC50 [7]: 85 µg/mL
B8: 5300 peptide, human R38 (peptide)
peptide: KEGYKVQSDVNITLEFRTSSQ

IC50 [7]: 0.7 µg/mL
B9: 5109 peptide (Ala subst. of 5100 a.a. 9) (peptide)
peptide: KEGYKVRLALNITLEFRTTSK
